Data reported in the supplement of paper PMC10307832.

Assays:
Assay in all cases: relative viability (nuclei count vs DMSO), 5 days (fraction); higher = more cells survive
[1] = compound: NCC(=O)Nc1ccc(-n2nc(C(F)(F)F)cc2-c2ccc3c(ccc4ccccc43)c2)cc1 + Nc1ncn([C@H]2C[C@H](O)[C@@H](CO)O2)c(=O)n1 [Decitabine] (partner 2 µM)
Procedure, shortened: (§1)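 Lung cancer cell lines were pin-tool dosed in 1536-well plates on the day after seeding, with either a lone drug or a fixed anchor-drug dose plus five library-drug doses (not always all listed) in √10 steps. Nuclei were counted on 4× images after 5 days. Relative viability is the ratio of treated-well to vehicle-well nuclei counts, with each value a median of duplicate plates.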

[2] = compound: C1CSC2=C(C(=O)N1)SC3=C2C=C(C=C3)O [kb NB 142-70] + CC(C)C[C@H](NC(=O)[C@H](Cc1ccccc1)NC(=O)c1cnccn1)B(O)O [Bortezomib] (partner 0.002 µM)
Procedure, shortened: as §1

[3] = compound: NCC(=O)Nc1ccc(-n2nc(C(F)(F)F)cc2-c2ccc3c(ccc4ccccc43)c2)cc1 + N=C(N)NC(=N)NCCc1ccccc1 [Phenformin] (partner 250 µM)
Procedure, shortened: as §1

[4] = compound: C1CSC2=C(C(=O)N1)SC3=C2C=C(C=C3)O [kb NB 142-70] + CCNC(=O)c1noc(-c2cc(C(C)C)c(O)cc2O)c1-c1ccc(CN2CCOCC2)cc1 [Luminespib] (partner 0.01 µM)
Procedure, shortened: as §1

[5] = compound: C1CSC2=C(C(=O)N1)SC3=C2C=C(C=C3)O [kb NB 142-70] + C[C@@H](Oc1cc(-c2cnn(C3CCNCC3)c2)cnc1N)c1c(Cl)ccc(F)c1Cl [Crizotinib] (partner 1 µM)
Procedure, shortened: as §1

UMC-11
relative viability ([1]; first compound 0.02 µM): 0.63 | relative viability ([1]; first compound 0.06325 µM): 0.593 | relative viability ([1]; first compound 0.2 µM): 0.557 | relative viability ([1]; first compound 0.6325 µM): 0.539 | relative viability ([1]; first compound 2 µM): 0.701 | relative viability ([2]; first compound 0.1 µM): 0.667 | relative viability ([2]; first compound 1 µM): 0.806 | relative viability ([2]; first compound 3.162 µM): 0.703 | relative viability ([3]; first compound 0.02 µM): 0.292 | relative viability ([3]; first compound 0.06325 µM): 0.337 | relative viability ([3]; first compound 0.2 µM): 0.334 | relative viability ([3]; first compound 0.6325 µM): 0.319 | relative viability ([3]; first compound 2 µM): 0.335 | relative viability ([4]; first compound 0.1 µM): 1.02 | relative viability ([4]; first compound 1 µM): 0.908 | relative viability ([4]; first compound 3.162 µM): 0.494 | relative viability ([5]; first compound 0.1 µM): 0.698 | relative viability ([5]; first compound 1 µM): 0.601 | relative viability ([5]; first compound 3.162 µM): 0.277
